Reference: patent US20240091210A1, “USE OF 5-[[4-[2-[5-ACETYLPYRIDIN-2-YL]ETHOXY]BENZYL]-1,3-THIAZOLIDINE-2,4-DIONE AND ITS SALTS” (Minoryx Therapeutics S.L., priority 2018, published 2024)
Read-outs that look alike come from different tables or passages of the source.

Legend:
[1] = Multiple ascending dose (MAD) study in human subjects; assay type: in vivo; conditions: for Cmax: in vivo, steady state day 8, human, read-out: mean Cmax ss
[2] = tested on: wild type MDA MB231 cells; assay: Seahorse oxygen consumption rate (OCR), wild type MDA MB231 cells; assay type: cell-based
Description: (§1) To determine whether MIN-102 has any effect on pyruvate-mediated mitochondrial respiration, the extracellular flux analyzer Seahorse was used as described in Compan et al.. Seahorse experiments were performed in the following cell lines: HeLa (Cervix cancer cells), A549 (lung cancer cells), wild type MDA MB 231, and MDA MB 231 in which MPC2 has been deleted, leading to inactivation of the MPC (MDA MB231 KO). MDA MB231 cells are epithelial breast cancer cells. Cells were incubated with increasing concentrations of the compounds for one hour at 37° C. before oxygen consumption rate (OCR) measurements. The Seahorse analyzer allowed to measure basal and maximal respiration measured upon depolarization with 1 μM CCCP. […] The KO cells have been deleted of the MPC2 gene and therefore they display no MPC activity. The top panel show a representative experiment of either wild type (WT) or KO cell lines. […] OCR values are expressed as ratios of OCR in the presence of different concentrations of the tested compound over the OCR in PBS alone.

MDA MB231 KO cells = assay: Seahorse oxygen consumption rate (OCR), MDA MB231 KO cells (MPC2 deleted); assay type: cell-based; conditions: MPC activity genetically deleted
Description: as §1

adiponectin = assay: Plasma adiponectin levels in rats (ELISA), measure of PPAR gamma engagement; assay type: in vivo, Sprague Dawley rats; conditions: 54 mg/Kg/day for 7 days, plasma 1 h after last dose, vs vehicle
Description: Evaluation of effect of MIN-102 on adiponectin was performed in Sprague Dawley wild type rats as a measure of PPAR gamma engagement. The rats were treated for 7 days with increasing doses of MIN-102 at 54 mg/Kg/day. Plasma were obtained at 1 h after the last MIN-102 administration. Adiponectin levels were measured by ELISA. Results were represented as mean+standard error of the mean of n=8. Data were analyzed by Kruskal-Wallis followed by the Dunn post-hoc test versus the vehicle group (**** p<0.0001).

[3] = tested on: MCD diet NASH mouse model; assay: Methionine Choline Deficient (MCD) diet NASH mouse model; assay type: in vivo, C57BL6/J male mice; conditions: 62.5 mg/kg BID oral, 7 weeks
Description: The preventive effects of MIN-102 was evaluated in a 7-week Methionine Choline Deficient (MCD) diet NASH mouse model (Verdelho Machado et al.). After the acclimation period, C57BL6/J male mice (n=20) were weighed and randomized into 2 homogenous treatment groups based on body weight (n=10/group), put on a MCD diet, and treated BID orally with vehicle or MIN-102 for 7 weeks. MIN-102 was dosed 62.5 mg/kg BID orally by gavage. After the acclimation period, C57BL6/J male mice (n=20) were weighed and randomized into 2 homogenous treatment groups based on body weight (n=10/group), put on a MCD diet, and treated BID orally with a vehicle or MIN-102 (125 mg/Kg/day) for 7 weeks. Body weight was measured 3 times/week until the end of the experimental phase. At 7 weeks of diet/treatment, mice were weighed and treated at ˜08:00 am in the morning, then bled (maximal volume/EDTA) at ˜1:00 pm. Plasma was then immediately isolated and stored at −80° C. prior to assay plasma ALT and AST. The plasma volume left over was stored at −80° C. for eventual additional analysis. After blood collection, the mice were sacrificed by cervical dislocation under isoflurane anesthesia and exsanguinated with sterile saline. A NAFLD scoring system (NAS) adapted from Kleiner et al. (Hepatology. 41(6):1313-1321 (2005)) using the criteria described in the Table 1 below: Several other histopathological observations described in clinical human cases and originally reported in the NAS scoring system published by Kleiner et al. were not observed in this animal study, such as lipogranuloma, acidophil bodies, megamitochondria, and pigmented macrophages. Therefore, it was elected not to include them in the scoring system described above. An individual mouse NAS total score was calculated for each animal by summing up the score for (1) hepatocellular steatosis, (2) liver inflammation, (3) lobular fibrosis, and (4) hepatocyte ballooning. Histology analysis was performed (oil red O, H&E and Sirius Red staining) for NAFLD scoring system (NAS) for liver steatosis, inflammation, fibrosis and hepatocyte ballooning.

[4] = Minimal effective exposure in mice (dose calculation); assay type: in vivo; conditions: said to correspond to 50 mg/kg
Description: It can be assumed that dose-exposure is linear. The minimal effective exposure of 5-[[4-[2-[5-(1-hydroxyethyl)pyridin-2-yl]ethoxy]phenyl]methyl]-1,3-thiazolidine-2,4-dione hydrochloride is 130 μg·h/mL in mice which corresponds to administration of 50 mg/kg of 5-[[4-[2-[5-(1-hydroxyethyl)pyridin-2-yl]ethoxy]phenyl]methyl]-1,3-thiazolidine-2,4-dione hydrochloride to mice. It follows that the dose to achieve this exposure in mice is […].

- change in clearance with time ([1]; 135 mg and 270 mg, human): no change in clearance with time
- Cmax ([1]; 135 mg): 9490 ng/mL
- Cmax ([1]; 270 mg): 17200 ng/mL
- Cmin ss associated with the target AUCss ([1]; target AUCss 200 μg·h/mL, line of best fit of day 8 Cmin ss vs AUCss): 5716 ng/mL
Compound: CC(O)c1ccc(CCOc2ccc(CC3SC(=O)NC3=O)cc2)nc1.Cl (racemic) [MIN-102, 5-[[4-[2-[5-(1-hydroxyethyl)pyridin-2-yl]ethoxy]phenyl]methyl]-1,3-thiazolidine-2,4-dione hydrochloride]
- effect on oxygen consumption [2]: inhibits oxygen consumption in a MPC dependent manner
- effect on oxygen consumption (MDA MB231 KO cells): does not inhibit oxygen consumption
- plasma adiponectin levels (adiponectin): significantly increased
- hepatic cholesterol levels [3]: did not show a change
- liver inflammation [3]: total disappearance
- body weight loss ([3]; day 14 to day 50, vs vehicle): less severe decline in body weight loss
- oil red o staining % ([3]; vs vehicle, p<0.001): extremely low
- reduction in hepatic triglycerides levels ([3]; vs vehicle, p<0.001): 92%
- steatosis score ([3]; vs vehicle, p<0.001): blunted
- reduction of plasma ALT level ([3]; vs vehicle, p<0.01): 78%
- reduction of plasma AST level ([3]; vs vehicle, p<0.01): 55%
- mean NAS group score ([3]; vehicle 3.40±0.3, p<0.001): 0.44±01
- minimal effective exposure [4]: 130 µg·h/mL
